Measurements published in EP4740965A1, “PHARMACEUTICAL COMPOSITION OF COMPOUND FOR INHIBITING AND DEGRADING IRAK4, AND USE THEREOF IN MEDICINE” (Xizang Haisco Pharmaceutical Co., Ltd., priority 2023, dated 2025).

Assays:
[1] = target: T1, IRAK4 (Homo sapiens, UniProt Q9NWZ3); assay: IRAK4 degradation activity in hPBMC cells (24 hours), automated western blot; type: cell-based; settings: IRAK4 protein degradation in hPBMC cells
T1 construct: endogenous in cells; host or cells: human peripheral blood mononuclear cells (hPBMC) from healthy volunteers
T1 sequence (Q9NWZ3 1-460): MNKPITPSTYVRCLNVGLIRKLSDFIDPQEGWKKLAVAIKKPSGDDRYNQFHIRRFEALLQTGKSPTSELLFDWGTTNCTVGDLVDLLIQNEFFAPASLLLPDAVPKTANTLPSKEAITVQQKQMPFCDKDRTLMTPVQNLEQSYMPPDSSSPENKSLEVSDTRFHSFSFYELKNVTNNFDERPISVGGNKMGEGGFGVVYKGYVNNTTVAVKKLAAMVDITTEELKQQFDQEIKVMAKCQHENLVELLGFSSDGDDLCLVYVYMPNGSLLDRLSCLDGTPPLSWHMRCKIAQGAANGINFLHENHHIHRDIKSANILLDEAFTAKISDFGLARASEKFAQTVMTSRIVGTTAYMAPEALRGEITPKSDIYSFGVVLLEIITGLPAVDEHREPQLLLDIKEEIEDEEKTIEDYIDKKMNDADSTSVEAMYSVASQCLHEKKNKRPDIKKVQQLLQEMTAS
Method: Test example 1: Study on IRAK4 degradation activity in hPBMC cells (24 hours)
hPBMC cells are human peripheral blood mononuclear cells. Peripheral venous blood was taken from healthy volunteers, and hPBMCs were isolated using Ficoll density gradient centrifugation (Ficoll-PaqueTM PLUS 1.077, GE, Cat. 17-1140-02). Culture conditions: RPMI-1640 + 10% FBS + 1% penicillin-streptomycin solution. The cells were cultured in an incubator at 37°C and 5% CO2. The cells were plated in a 24-well plate at 1 × 10^6 cells/well. After plating, compounds at different concentrations were added, and the cells were cultured in an incubator at 37°C and 5% CO2 for 24 hours. After the culture was completed, the cells were collected, and RIPA lysis buffer (beyotime, Cat. P0013B) was added. […] The protein sample of the supernatant was collected, the protein was quantified using a BCA kit (Beyotime, Cat. P0009), and then the protein was diluted to 1 mg/mL. The expression of IRAK4 (CST, Cat. 4363S) and the internal reference cofilin (CST, Cat. 5175S) were detected using a fully automated western blot quantitative analyser (Proteinsimple). The expression level of IRAK4 relative to the internal reference was calculated using compass software. […] An IRAK4 degradation-drug concentration curve was fit using Graphpad Prism 8 software, and the DC50 was calculated. […]

[2] = target: T2, hERG potassium ion channel (Homo sapiens, UniProt Q12809); assay: Effect on hERG potassium ion channel, manual whole cell patch-clamp in CHO cells; type: cell-based; settings: hamster, inhibitory effect on hERG potassium channel current
T2 construct: expressed in transfected cells
Excerpt: Test example 3. Test of effect on hERG potassium ion channel
Experimental platform: electrophysiological manual patch-clamp system
Cell line: Chinese hamster ovary (CHO) cell line stably expressing hERG potassium ion channel
Experimental method: In CHO (Chinese Hamster Ovary) cells stably expressing hERG potassium channel, whole cell patch-clamp technique was used to record hERG potassium channel current at room temperature. The glass microelectrode was made of a glass electrode blank (BF150-86-10, Sutter) by a puller. The tip resistance after filling the liquid in the electrode was about 2-5 MΩ. The glass microelectrode can be connected to the patch-clamp amplifier by inserting the glass microelectrode into an amplifier probe. The clamping voltage and data recording were controlled and recorded by the pClamp 10 software through a computer. The sampling frequency was 10 kHz, and the filtering frequency was 2 kHz. […]
Compound IC50 was calculated using GraphPad Prism 5 software by fitting according to the following equation: Y = Bottom + (Top−Bottom)/(1+10^(∧)((LogIC50−X)*HillSlope)) [formula] where X represents the Log value of the tested concentration of the test sample, Y represents the inhibition percentage at the corresponding concentration, and Bottom and Top represent the minimum and maximum inhibition percentage, respectively. […]

[3] = Pharmacokinetic test in mice; type: in vivo, ICR mice; settings: mouse, po; plasma of mice, i.g. (10 mg/kg)
Method: Test example 2: Pharmacokinetic test in mice
Experimental animals: Male ICR mice, about 25 g, 6 mice/compound, purchased from Chengdu Ddossy Experimental Animals Co., Ltd.
Test design: On the day of the experiment, 6 ICR mice were randomly grouped according to their body weights. The animals were fasted with water available for 12 to 14 h one day before the administration, and were fed 4 h after the administration. Table 2.1 Administration information
Before and after the administration, 0.15 mL of blood was taken from the orbit of the animals under isoflurane anaesthesia and placed in an EDTAK2 centrifuge tube. The blood was centrifuged at 5000 rpm and 4°C for 10 min to collect plasma. The blood collection time points for the intravenous administration group and intragastric administration group were 0 min, 5 min, 15 min, 30 min, 1 h, 2 h, 4 h, 7 h and 24 h. Before analysis and detection, all samples were stored at - 60°C. The samples were analysed quantitatively by LC-MS/MS. Table 2.2 Pharmacokinetic parameters of compounds of the present invention in plasma of mice

T2 sequence (Q12809 whole entry): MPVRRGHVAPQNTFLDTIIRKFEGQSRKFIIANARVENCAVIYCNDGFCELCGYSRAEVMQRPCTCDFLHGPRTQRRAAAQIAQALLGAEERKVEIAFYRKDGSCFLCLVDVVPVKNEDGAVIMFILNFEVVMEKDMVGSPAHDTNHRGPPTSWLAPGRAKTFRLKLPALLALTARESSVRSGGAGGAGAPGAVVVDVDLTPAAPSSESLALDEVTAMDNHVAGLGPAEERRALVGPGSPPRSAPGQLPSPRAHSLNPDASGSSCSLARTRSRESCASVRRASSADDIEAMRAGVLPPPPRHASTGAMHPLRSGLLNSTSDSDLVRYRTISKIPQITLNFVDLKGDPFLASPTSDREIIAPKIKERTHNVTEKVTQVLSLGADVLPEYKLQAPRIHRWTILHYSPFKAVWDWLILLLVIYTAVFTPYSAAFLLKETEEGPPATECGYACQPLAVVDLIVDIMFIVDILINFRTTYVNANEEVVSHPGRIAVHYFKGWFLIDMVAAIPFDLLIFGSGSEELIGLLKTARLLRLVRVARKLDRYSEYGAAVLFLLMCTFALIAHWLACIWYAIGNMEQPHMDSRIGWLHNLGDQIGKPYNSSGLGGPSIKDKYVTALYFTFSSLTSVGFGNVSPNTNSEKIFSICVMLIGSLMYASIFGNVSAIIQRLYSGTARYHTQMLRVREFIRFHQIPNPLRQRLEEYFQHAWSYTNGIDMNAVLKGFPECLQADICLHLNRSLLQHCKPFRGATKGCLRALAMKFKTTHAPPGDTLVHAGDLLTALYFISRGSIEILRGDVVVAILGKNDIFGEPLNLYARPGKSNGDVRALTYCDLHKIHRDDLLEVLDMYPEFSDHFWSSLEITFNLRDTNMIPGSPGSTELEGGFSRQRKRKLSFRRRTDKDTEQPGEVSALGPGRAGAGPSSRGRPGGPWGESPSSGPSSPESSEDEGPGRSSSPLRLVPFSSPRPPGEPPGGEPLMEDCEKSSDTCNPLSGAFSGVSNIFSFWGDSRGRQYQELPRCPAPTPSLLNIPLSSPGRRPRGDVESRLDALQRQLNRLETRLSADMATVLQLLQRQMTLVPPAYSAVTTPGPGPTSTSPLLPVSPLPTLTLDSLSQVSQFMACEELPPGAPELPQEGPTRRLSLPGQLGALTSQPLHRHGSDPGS

Work on `Cn1nc(C2CCC(=O)NC2=O)c2cccc(C#CCO[C@@H]3CCN(C[C@H]4CC[C@H](n5cc(NC(=O)c6cnn7ccc(N8CCO[C@H](CO)C8)nc67)c(C(F)F)n5)CC4)C[C@@H]3F)c21` (single isomer, unassigned) [Chiral isomer 1 of compound 20] yielded a DC50 [1] of less than 20 nM and an IC50 [2] greater than 40000 nM.

In the case of `Cn1c(=O)n(C2CCC(=O)NC2=O)c2cccc(C#CCOC3CCN(C[C@H]4CC[C@H](n5cc(NC(=O)c6cnn7ccc(N8C[C@H]9C[C@@H]8CO9)nc67)c(C(F)F)n5)CC4)CC3)c21` (stereo partly shown) [Control compound 1], the AUC(0-t) at 24 h [3] is reported as 2320 ± 146 ng·h/mL.

With `Cn1nc(C2CCC(=O)NC2=O)c2cccc(C#CCO[C@@H]3CCN(C[C@H]4CC[C@H](n5cc(NC(=O)c6cnn7ccc(N8CCO[C@H](CO)C8)nc67)c(C(F)F)n5)CC4)C[C@@H]3F)c21` (single isomer, unassigned) [Chiral isomer 2 of compound 20] the DC50 [1] was less than 20 nM.
